From US20240415819A1, “MACROCYCLIC COMPOUNDS AS PROTEASOME SUBUNIT BETA TYPE-5 INHIBITORS” (Lead Discovery Center GmbH, priority 2021, published 2024)

Columns and labels:
[1] = system: A549 (human lung carcinoma cell line); assay: Glo assay of A549 cells (Table 3; ProteasomeGlo plating scheme); format: cell-based; conditions: Homo sapiens; A549 cells; read-out: PGLo A549
Method in brief: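 After acoustic compound transfer, plates incubate 105 min (37° C., 5% CO2). Proteasome-Glo reagent containing Suc-LLVY-Glo substrate is added, plates are shaken, then luminescence is measured after 10-15 min to derive IC50 [nM]. Staurosporine and DMSO serve as controls.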

hPMBC = assay: Chymotrypsin-like ProteasomeGlo assay in hPBMC; format: cell-based; conditions: Homo sapiens; read-out: Pglo hPBMC
Method in brief: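 B cells isolated from human PBMC (buffy coats, density gradient, magnetic isolation). Cells treated with compound for 105 min at 37 °C, with staurosporine and DMSO included. Chymotrypsin-like proteasome activity read by luminescence with Suc-LLVY-Glo substrate to derive IC50.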

SMILES	IC50 [1] [nM]	IC50 (hPMBC) [nM]
Cc1ccc2cc1CNC(=O)[C@H](CCc1ccccc1)NC(=O)[C@@H](NC(=O)Cc1cnc(N)s1)CC(=O)N1CCCC(CCO2)C1 (stereo partly drawn) [Compound 311, 2-(2-aminothiazol-5-yl)-N-((9S,12S)-5^4-methyl-8,11,14-trioxo-9-phenethyl-4-oxa-7,10-diaza-1(3,1)-piperidina-5(1,3)-benzenacyclotetradecaphane-12-yl)acetamide]	< 100	< 100
Cc1ccc2cc1CNC(=O)[C@H](CCc1ccccc1)NC(=O)[C@@H](NC(=O)OCc1ccccc1)CC(=O)N1CC(CCO2)CC2CCCCC21 (stereo partly drawn) [Compound 314, benzyl ((9S,12S)-5^4-methyl-8,11,14-trioxo-9-phenethyl-11,12,13,14,14a,15,16,17,18,18a-decahydro-4-oxa-7,10-diaza-1(3,1)-quinolina-5(1,3)-benzenacyclotetradecaphane-12-yl)carbamate]	< 100	< 100
Cc1ccc2cc1CNC(=O)[C@H](CCc1ccccc1)NC(=O)[C@@H](NC(=O)OCc1ccccc1)CCCC(=O)N1CCC(CCO2)C1 (stereo partly drawn) [Compound 352, benzyl ((9S, 12S)-5^4-methyl-8,11,16-trioxo-9-phenethyl-4-oxa-7,10-diaza-1(3,1)-pyrrolidina-5(1,3)-benzenacyclohexadecaphane-12-yl)carbamate]	< 100	100 to 500
Cc1ccc2cc1CNC(=O)[C@H](CCc1ccccc1)NC(=O)[C@@H](NC(=O)OCc1ccccc1)CCCCC(=O)NCCCCO2 [Compound 347, benzyl ((13S,16S)-1^4-methyl-8,14,17-trioxo-16-phenethyl-2-oxa-7,15,18-triaza-1(1,3)-benzenacyclononadecaphane-13-yl)carbamate]	100 to 500	< 100
Cc1ccc2cc1CNC(=O)C(CCc1cnccn1)NC(=O)[C@@H](NC(=O)C1(c3ccc(N)cc3)CC1)CC(=O)N1CCCC(CCO2)C1 (stereo partly drawn) [Compound 371, 1-(4-aminophenyl)-N-((9S,12S)-5^4-methyl-8,11,14-trioxo-9-(2-(pyrazin-2-yl)ethyl)-4-oxa-7,10-diaza-1(3,1)-piperidina-5(1,3)-benzenacyclotetradecaphane-12-yl)cyclopropane-1-carboxamide]	< 100	< 100
CCOC(=O)N[C@H]1CC(=O)N2CCCC(CCOc3ccc(C)c(c3)CNC(=O)C(c3cnn(C)c3)NC1=O)C2 (stereo partly drawn) [Compound 363, Ethyl ((12S)-5^4-methyl-9-(1-methyl-1H-pyrazol-4-yl)-8,11,14-trioxo-4-oxa-7,10-diaza-1(3,1)-piperidina-5(1,3)-benzenacyclotetradecaphane-12-yl)carbamate]	< 100	< 100
Cc1ccc2cc1CNC(=O)[C@H](CCc1ccccc1)NC(=O)[C@@H](NC(=O)C(C)c1ccc(N)cc1)CC(=O)N1CCCC(CCO2)C1 (stereo partly drawn) [Compound 309, 2-(4-aminophenyl)-N-((9S,12S)-5^4-methyl-8,11,14-trioxo-9-phenethyl-4-oxa-7,10-diaza-1(3,1)-piperidina-5(1,3)-benzenacyclotetradecaphane-12-yl)propanamide]	< 100	< 100
Cc1ccc2cc1CNC(=O)[C@H](CCc1ccccc1)NC(=O)[C@@H](NC(=O)CC(C)(C)C)CC(=O)N1CCCC(CCO2)C1 (stereo partly drawn) [Compound 28, 3,3-dimethyl-N-((9S,12S)-5^4-methyl-8,11,14-trioxo-9-phenethyl-4-oxa-7,10-diaza-1(3,1)-piperidina-5(1,3)-benzenacyclotetradecaphane-12-yl)butanamide]	< 100	100 to 500
Cc1ccc2cc1CNC(=O)C(CCc1cnc3nccnc3c1)NC(=O)[C@@H](NC(=O)OCc1ccccc1)CC(=O)N1CCCC(CCO2)C1 (stereo partly drawn) [Compound 505, benzyl ((12S)-5^4-methyl-8,11,14-trioxo-9-(2-(pyrido[2,3-b]pyrazin-7-yl)ethyl)-4-oxa-7,10-diaza-1(3,1)-piperidina-5(1,3)-benzenacyclotetradecaphane-12-yl)carbamate]	< 100	100 to 500
Cc1ccc2cc1CNC(=O)C(CCc1ccncc1)NC(=O)[C@@H](NC(=O)Cc1ccc(N)cc1F)CC(=O)N1CCCC(CCO2)C1 (stereo partly drawn) [Compound 344, 2-(4-amino-2-fluorophenyl)-N-((12S)-5^4-methyl-8,11,14-trioxo-9-(2-(pyridin-4-yl)ethyl)-4-oxa-7,10-diaza-1(3,1)-piperidina-5(1,3)-benzenacyclotetradecaphane-12-yl)acetamide]	< 100	< 100

Other lines, results leading:

IC50 [1] [nM]	IC50 (hPMBC) [nM]	SMILES
< 100	< 100	CC(=O)N[C@H]1CC(=O)N2CCCC(CCOc3ccc(C)c(c3)CNC(=O)C(CCc3nccs3)NC1=O)C2 (stereo partly drawn) [Compound 563, N-((12S)-5^4-methyl-8,11,14-trioxo-9-(2-(thiazol-2-yl)ethyl)-4-oxa-7,10-diaza-1(3,1)-piperidina-5(1,3)-benzenacyclotetradecaphane-12-yl)acetamide]
100 to 500	100 to 500	Cc1ccc2cc1CNC(=O)[C@H](CCc1ccccc1)NC(=O)[C@@H](NC(=O)Cc1nc(-c3ccncc3)n[nH]1)CC(=O)N1CCCC(CCO2)C1 (stereo partly drawn) [Compound 329, N-((9S,12S)-5^4-methyl-8,11,14-trioxo-9-phenethyl-4-oxa-7,10-diaza-1(3,1)-piperidina-5(1,3)-benzenacyclotetradecaphane-12-yl)-2-(3-(pyridin-4-yl)-1H-1,2,4-triazol-5-yl)acetamide]
500 to 1000	100 to 500	CC(=O)N[C@H]1CC(=O)N(C)CCCCOc2ccc(C)c(c2)CNC(=O)[C@H](CCc2ccccc2)NC1=O [Compound 296, N-(1^4,7-dimethyl-8,11,14-trioxo-13-phenethyl-2-oxa-7,12,15-triaza-1(1,3)-benzenacyclohexadecaphane-10-yl)acetamide]
< 100	< 100	COC(=O)N(CC1NC(=O)[C@@H](NC(=O)OCc2ccccc2)CC(=O)N2CCCC(CCOc3ccc(C)c(c3)CNC1=O)C2)c1ccccc1 (stereo partly drawn) [Compound 513, methyl (((12R)-12-(((benzyloxy)carbonyl)amino)-5^4-methyl-8,11,14-trioxo-4-oxa-7,10-diaza-1(3,1)-piperidina-5(1,3)-benzenacyclotetradecaphane-9-yl)methyl)(phenyl)carbamate]
< 100	< 100	Cc1ccc2cc1CNC(=O)[C@H](CCc1ccccc1)NC(=O)[C@@H](NC(=O)Cc1csc(N)n1)CC(=O)N1CCCC(CCO2)C1 (stereo partly drawn) [Compound 302, 2-(2-aminothiazol-4-yl)-N-((9S,12S)-5^4-methyl-8,11,14-trioxo-9-phenethyl-4-oxa-7,10-diaza-1(3,1)-piperidina-5(1,3)-benzenacyclotetradecaphane-12-yl)acetamide]
< 100	< 100	CC(=O)N[C@H]1CC(=O)N2CCCC(CCOc3cccc(c3)CNC(=O)[C@H](CCc3ccccc3)NC1=O)C2 (stereo partly drawn) [Compound 364, N-((9S,12S)-8,11,14-trioxo-9-phenethyl-4-oxa-7,10-diaza-1(3,1)-piperidina-5(1,3)-benzenacyclotetradecaphane-12-yl)acetamide]
100 to 500	< 100	CCOC(C(=O)N[C@H]1CC(=O)N2CCCC(CCOc3ccc(C)c(c3)CNC(=O)[C@H](CCc3ccccc3)NC1=O)C2)c1ccc(N)cc1 (stereo partly drawn) [Compound 345, 2-(4-aminophenyl)-2-ethoxy-N-((9S,12S)-5^4-methyl-8,11,14-trioxo-9-phenethyl-4-oxa-7,10-diaza-1(3,1)-piperidina-5(1,3)-benzenacyclotetradecaphane-12-yl)acetamide]
< 100	< 100	CC(=O)N[C@H]1CC(=O)N2CCCC(CCOc3ccc(C)c(c3)CNC(=O)C(c3cnn(CCC(=O)O)c3)NC1=O)C2 (stereo partly drawn) [Compound 567, 3-(4-((12S)-12-acetamido-5^4-methyl-8,11,14-trioxo-4-oxa-7,10-diaza-1(3,1)-piperidina-5(1,3)-benzenacyclotetradecaphane-9-yl)-1H-pyrazol-1-yl)propanoic acid]
< 100	< 100	Cc1ccc2cc1CNC(=O)C(c1cnn(C)c1)NC(=O)[C@@H](NC(=O)[C@@H](C)c1ccccc1)CC(=O)N1CCCC(CCO2)C1 (stereo partly drawn) [Compound 359, (2S)-N-((12S)-5^4-methyl-9-(1-methyl-1H-pyrazol-4-yl)-8,11,14-trioxo-4-oxa-7,10-diaza-1(3,1)-piperidina-5(1,3)-benzenacyclotetradecaphane-12-yl)-2-phenylpropanamide]
< 100	< 100	Cc1nc(C2NC(=O)[C@@H](NC(=O)OCc3ccccc3)CC(=O)N3CCCC(CCOc4ccc(C)c(c4)CNC2=O)C3)co1 (stereo partly drawn) [Compound 512, benzyl ((12S)-5^4-methyl-9-(2-methyloxazol-4-yl)-8,11,14-trioxo-4-oxa-7,10-diaza-1(3,1)-piperidina-5(1,3)-benzenacyclotetradecaphane-12-yl)carbamate]
1000 to 5000	1000 to 5000	Cc1ccc2cc1CNC(=O)[C@H](CCc1ccccc1)NC(=O)[C@@H](NC(=O)OCc1ccccc1)CCC(=O)N1CCCC3(CC(C3)O2)C1 [Compound 301, benzyl ((7S,10S)-3^4-methyl-6,9,13-trioxo-7-phenethyl-2-oxa-5,8-diaza-14(3,1)-piperidina-3(1,3)-benzena-1(1,3)-cyclobutanatetradecaphane-10-yl)carbamate]
< 100	< 100	COc1cccc(CC(=O)N[C@H]2CC(=O)N3CCCC(CCOc4ccc(C)c(c4)CNC(=O)C(c4cnn(C)c4)NC2=O)C3)c1 (stereo partly drawn) [Compound 362, 2-(3-methoxyphenyl)-N-((12S)-5^4-methyl-9-(1-methyl-1H-pyrazol-4-yl)-8,11,14-trioxo-4-oxa-7,10-diaza-1(3,1)-piperidina-5(1,3)-benzenacyclotetradecaphane-12-yl)acetamide]
